What all share (format): biochemical
The target of test [1] is T1, PIP4K2A (Homo sapiens, UniProt P48426).
T1 sequence (P48426 1-406): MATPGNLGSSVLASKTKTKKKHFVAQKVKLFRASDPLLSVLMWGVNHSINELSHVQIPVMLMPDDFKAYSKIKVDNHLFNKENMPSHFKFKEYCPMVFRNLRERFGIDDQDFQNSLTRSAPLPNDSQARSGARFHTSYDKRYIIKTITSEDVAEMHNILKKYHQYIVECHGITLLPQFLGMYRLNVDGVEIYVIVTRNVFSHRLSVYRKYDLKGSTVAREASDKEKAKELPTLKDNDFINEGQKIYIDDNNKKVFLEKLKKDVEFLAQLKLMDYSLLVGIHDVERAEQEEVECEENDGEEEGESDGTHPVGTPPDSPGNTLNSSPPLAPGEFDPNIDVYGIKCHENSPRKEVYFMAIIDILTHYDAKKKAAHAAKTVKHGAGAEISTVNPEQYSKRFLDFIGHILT
Nature of the test: ADP-glo kinase assay PIP4K 2A (Table 3). More on the design: made in house; host or cells: E. coli. Particulars: compounds listed under IC50 bins. A digest of the protocol: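 ADP-Glo luminescence detected ADP after 1 h RT reaction started by ATP (60 μM solution) on full-length PIP4K2A (4 nM in mix) and PI(5)P diC8 (100 μM in mix), preceded by 15 min enzyme-compound preincubation in MOPS pH 7.2/25 mM MgCl2. Percent inhibition versus DMSO over 10 concentrations fitted for IC50.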
For orientation: ADP-Glo first removes unused ATP, then detects ADP through luciferase.

For another test, the target named is T2, PIP4K2B (Homo sapiens, UniProt P78356).
T2 construct: made in house; host or cells: E. coli
T2 sequence (P78356 1-416): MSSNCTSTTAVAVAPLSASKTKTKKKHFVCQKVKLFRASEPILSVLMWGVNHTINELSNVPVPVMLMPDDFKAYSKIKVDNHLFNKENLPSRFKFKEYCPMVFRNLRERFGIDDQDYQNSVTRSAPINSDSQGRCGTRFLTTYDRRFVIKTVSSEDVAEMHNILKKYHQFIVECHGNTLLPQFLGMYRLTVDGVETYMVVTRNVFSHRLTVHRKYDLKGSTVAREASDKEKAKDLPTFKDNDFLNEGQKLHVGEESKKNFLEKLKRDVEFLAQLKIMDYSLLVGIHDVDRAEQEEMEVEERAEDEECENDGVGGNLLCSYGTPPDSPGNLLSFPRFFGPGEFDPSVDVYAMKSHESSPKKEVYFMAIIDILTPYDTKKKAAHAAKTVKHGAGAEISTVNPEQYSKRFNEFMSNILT
Briefly: Trans-FI P kinase assay PIP4K2B (Table 4). Particulars: compounds listed under IC50 bins; read-out: Trans-FI P kinase assays: PIP4K2B IC50. A digest of the protocol: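 Transcreener FI detection (Ex 584/Em 623) of GDP, converted via calibration curve, gives IC50 from residual activity versus log concentration (highest 4.8 μM). Reaction: 80 μM PI5P plus DOPE carrier, 100 μM GTP, 5 nM GST-tagged enzyme, pH 7.3 HEPES with MgCl2 and 5% DMSO, 2 h after 1 h enzyme-compound preincubation at 27° C.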

The target in test [2] is T1, PIP4K2A. Nature of the test: Kinase Assay PIP4K2 A (Table 2). Particulars: compounds listed under IC50 bins. Set-up: 4 nM PIP4K2A (full length protein, SignalChem); purchased SignalChem. In outline:
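ADP-Glo luminescent read-out after 1 h room-temperature kinase reaction, started with 60 μM ATP solution following 15 min compound pre-incubation. Enzyme/substrate mix: 4 nM full-length PIP4K2A plus 100 μM PI(5)P diC8; buffer MOPS pH 7.2 with 25 mM MgCl2 and Tween 20. IC50 from 10-point, 3-fold titrations normalized to DMSO.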

In general, IC50 refers to the concentration needed to halve the response being measured. For `O=C1CCCN1c1ccc(-c2ccc(Nc3cnc4c(c3)N3C(=O)CC[C@H]3CO4)nc2)cc1` [Example 84, (S)-2-((5-(4-(2-oxopyrrolidin-1-yl)phenyl)pyridin-2-yl)amino)-6,6a,7,8-tetrahydro-9H-pyrido[2,3-b]pyrrolo[1,2-d][1,4]oxazin-9-one], the figures for the IC50 at PIP4K2A [1], at PIP4K2B and against PIP4K2A [2] were 1 to 10 nM, 10 to 100 nM and 1 to 10 nM, respectively.

With `O=C1CCCN1c1ccc(-c2ccc(Nc3cnc4c(c3)N3C(=O)CC[C@@H]3CO4)nc2)cc1` [Example 85, (R)-2-((5-(4-(2-oxopyrrolidin-1-yl)phenyl)pyridin-2-yl)amino)-6,6a,7,8-tetrahydro-9H-pyrido[2,3-b]pyrrolo[1,2-d][1,4]oxazin-9-one], the results for the IC50 on PIP4K2A [1], on PIP4K2B and at PIP4K2A [2] were 10 to 100 nM, 10 to 100 nM and 1 to 10 nM, respectively.

Turning to `CC(=O)N1CCOc2ncc(Nc3ccc(-c4ccc(N5CCCC5=O)cc4)cn3)cc21` [Example 86, 1-(4-(6-((1-acetyl-2,3-dihydro-1H-pyrido[2,3-b][1,4]oxazin-7-yl)amino)pyridin-3-yl)phenyl)pyrrolidin-2-one], the concentration for half-maximal inhibition (IC50) is 10 to 100 nM at PIP4K2A [1], 10 to 100 nM at PIP4K2B and 1 to 10 nM against PIP4K2A [2].

For the molecule `O=C1CCCN1c1ccc(-c2ccc(Nc3cnc4c(c3)OCCO4)nc2)cc1` [Example 87, 1-(4-(6-((2,3-dihydro-[1,4]dioxino[2,3-b]pyridin-7-yl)amino)pyridin-3-yl)phenyl)pyrrolidin-2-one], the results for the IC50 on PIP4K2A [1], at PIP4K2B and against PIP4K2A [2] were 100 to 1000 nM, 10 to 100 nM and 10 to 100 nM, respectively.

For the molecule `CN(C)C(=O)c1ccc(-c2ccc(Nc3cnc4c(c3)N(C(=O)CO)CCO4)nc2)cc1` [Example 89, 4-(6-((1-(2-hydroxyacetyl)-2,3-dihydro-1H-pyrido[2,3-b][1,4]oxazin-7-yl)amino)pyridin-3-yl)-N,N-dimethylbenzamide], the IC50 on PIP4K2A [1] lay within 10 to 100 nM; on PIP4K2B it was 10 to 100 nM; against PIP4K2A [2], 1 to 10 nM.

Turning to `CN(C)C(=O)c1ccc(-c2ccc(Nc3cnc4c(c3)N(C(=O)c3ccccc3)CCO4)nc2)cc1` [Example 94, 4-(6-((1-benzoyl-2,3-dihydro-1H-pyrido[2,3-b][1,4]oxazin-7-yl)amino)pyridin-3-yl)-N,N-dimethylbenzamide], the IC50 against PIP4K2A [1] was 10 to 100 nM; on PIP4K2B, 10 to 100 nM; at PIP4K2A [2], 1 to 10 nM.

In the case of `CN(C)C(=O)c1ccc(-c2ccc(Nc3cnc4c(c3)N(C(=O)c3ccccn3)CCO4)nc2)cc1` [Example 95, N,N-dimethyl-4-(6-((1-picolinoyl-2,3-dihydro-1H-pyrido[2,3-b][1,4]oxazin-7-yl)amino)pyridin-3-yl)benzamide], the IC50 against PIP4K2A [1], on PIP4K2B and on PIP4K2A [2] was 10 to 100 nM in each case.

For `CN(C)C(=O)c1ccc(-c2ccc(Nc3cnc4c(c3)N(C(=O)C(C)(C)CO)CCO4)nc2)cc1` [Example 96, 4-(6-((1-(3-hydroxy-2,2-dimethylpropanoyl)-2,3-dihydro-1H-pyrido[2,3-b][1,4]oxazin-7-yl)amino)pyridin-3-yl)-N,N-dimethylbenzamide], the IC50 at PIP4K2A [1] lay within 10 to 100 nM; at PIP4K2B it was 10 to 100 nM; against PIP4K2A [2] it was 1 to 10 nM.

`CN(C)C(=O)c1ccc(-c2ccc(Nc3cncc(NC(=O)c4cccc(NC(=O)OC(C)(C)C)c4)c3)nc2)cc1` [Example 98, tert-butyl (3-((5-((5-(4-(dimethylcarbamoyl)phenyl)pyridin-2-yl)amino)pyridin-3-yl)carbamoyl)phenyl)carbamate]: the IC50 against PIP4K2A [1] was in the range of 100 to 1000 nM; at PIP4K2B, 10 to 100 nM; on PIP4K2A [2], 10 to 100 nM.

On to `CN(C)C/C=C/C(=O)Nc1cccc(C(=O)Nc2cncc(Nc3ccc(-c4ccc(C(=O)N(C)C)cc4)cn3)c2)c1` [Example 100, (E)-4-(6-((5-(3-(4-(dimethylamino)but-2-enamido)benzamido)pyridin-3-yl)amino)pyridin-3-yl)-N,N-dimethylbenzamide], for which the IC50 against PIP4K2A [1] lay in the range of 10 to 100 nM; on PIP4K2B it was 10 to 100 nM; against PIP4K2A [2], 1 to 10 nM.

As for `CN(C)C(=O)c1ccc(-c2ccc(Nc3cncc(NC(=O)CCc4cccc(NC(=O)OC(C)(C)C)c4)c3)nc2)cc1` [Example 101, tert-butyl (3-(3-((5-((5-(4-(dimethylcarbamoyl)phenyl)pyridin-2-yl)amino)pyridin-3-yl)amino)-3-oxopropyl)phenyl)carbamate], the concentration for half-maximal inhibition (IC50) lay in the range of 100 to 1000 nM against PIP4K2A [1], 10 to 100 nM at PIP4K2B and 10 to 100 nM against PIP4K2A [2].

For the molecule `CN(C)C(=O)c1ccc(-c2ccc(Nc3cncc(NC(=O)CCc4cccc(N)c4)c3)nc2)cc1` [Example 102, 4-(6-((5-(3-(3-aminophenyl)propanamido)pyridin-3-yl)amino)pyridin-3-yl)-N,N-dimethylbenzamide], the IC50 was 10 to 100 nM on PIP4K2A [1], 10 to 100 nM on PIP4K2B and 1 to 10 nM against PIP4K2A [2].

For the molecule `CN(C)C/C=C/C(=O)Nc1cccc(CCC(=O)Nc2cncc(Nc3ccc(-c4ccc(C(=O)N(C)C)cc4)cn3)c2)c1` [Example 103, (E)-4-(6-((5-(3-(3-(4-(dimethylamino)but-2-enamido)phenyl)propanamido)pyridin-3-yl)amino)pyridin-3-yl)-N,N-dimethylbenzamide], the IC50 fell in the range of 10 to 100 nM on PIP4K2A [1], 10 to 100 nM on PIP4K2B and 1 to 10 nM against PIP4K2A [2].

As to `CN(C)C(=O)c1ccc(-c2ccc(Nc3ccc(CNC(=O)c4cccc(NC(=O)OC(C)(C)C)c4)nc3)nc2)cc1` [Example 104, tert-butyl (3-(((5-((5-(4-(dimethylcarbamoyl)phenyl)pyridin-2-yl)amino)pyridin-2-yl)methyl)carbamoyl)phenyl)carbamate], the IC50 was over 1000 nM at PIP4K2A [1], over 1000 nM on PIP4K2B and 100 to 1000 nM against PIP4K2A [2].

Take `CN(C)C/C=C/C(=O)Nc1cccc(C(=O)NCc2ccc(Nc3ccc(-c4ccc(C(=O)N(C)C)cc4)cn3)cn2)c1` [Example 106, (E)-4-(6-((6-((3-(4-(dimethylamino)but-2-enamido)benzamido)methyl)pyridin-3-yl)amino)pyridin-3-yl)-N,N-dimethylbenzamide]: the IC50 at PIP4K2A [1] was 100 to 1000 nM; at PIP4K2B, 10 to 100 nM; against PIP4K2A [2], 100 to 1000 nM.

`CN(C)C(=O)c1ccc(-c2ccc(Nc3cncc(NC(=O)CCc4cccc(NC(=O)CN)c4)c3)nc2)cc1` [Example 107, 4-(6-((5-(3-(3-(2-aminoacetamido)phenyl)propanamido)pyridin-3-yl)amino)pyridin-3-yl)-N,N-dimethylbenzamide]: the IC50 against PIP4K2A [1] was 100 to 1000 nM; at PIP4K2B, 10 to 100 nM; at PIP4K2A [2], 100 to 1000 nM.

As for `CN(C)C/C=C/C(=O)NCC(=O)Nc1cccc(CCC(=O)Nc2cncc(Nc3ccc(-c4ccc(C(=O)N(C)C)cc4)cn3)c2)c1` [Example 108, (E)-4-(6-((5-(3-(3-(2-(4-(dimethylamino)but-2-enamido)acetamido)phenyl)propanamido)pyridin-3-yl)amino)pyridin-3-yl)-N,N-dimethylbenzamide], the IC50 against PIP4K2A [1] was 100 to 1000 nM; at PIP4K2B, over 1000 nM; against PIP4K2A [2] it was 100 to 1000 nM.

Regarding `CN(C)C(=O)c1ccc(-c2ccc(Nc3cncc(NC(=O)CCc4cccc(NC(=O)C5CCNCC5)c4)c3)nc2)cc1` [Example 109, N-(3-(3-((5-((5-(4-(dimethylcarbamoyl)phenyl)pyridin-2-yl)amino)pyridin-3-yl)amino)-3-oxopropyl)phenyl)piperidine-4-carboxamide], the IC50 fell in the range of 1 to 10 nM on PIP4K2A [1], 10 to 100 nM on PIP4K2B and 1 to 10 nM against PIP4K2A [2].

The record behind these values is patent US11667651B2, “Aminopyridine derivatives as phosphatidylinositol phosphate kinase inhibitors” (HiberCell, Inc., priority 2017, dated 2023).
